Data taken from patent US3995061A, “Pharmaceutical composition and method of using the same” (Chugai Seiyaku Kabushiki Kaisha, priority 1974, dated 1976).

How the values were obtained:
blood platelet = assay: Aggregation inhibition activity of blood platelet (ADP-induced, platelet rich plasma of orally dosed rats); type: in vivo, Wister-Imamich strain male rats; conditions: rat, 20 mg/kg oral, 6 hours; adenosine-5'-diphosphate 10^-5 M in platelet rich plasma
Experimental: In this Example Wister-Imamich strain male rats weighing 230 ± 30 g which had been bred with the use of a commercial chow, CLEA CE-2 were used.
The rats were divided into groups of five members each, and orally administered with a different ascochlorin derivative as a suspension in 2% gum arabic aqueous solution in a dose of 20 mg/kg.body weight. Six hours after the administration, the blood of each rat was sampled from the heart and after the addition of citric acid, the blood sample was centrifuged at 1,500 r.p.m. for 10 minutes to obtain platelet rich plasma. The anti-aggregation effect when the concentration of adenosine-5'-diphosphatein the platelet rich plasma is ultimately 10^^-5 M is shown in Table II.
As positive controls, ascochlorin, ethyl-α-(p-chlorophenoxy) isobutylate and acetyl salicyclic acid were used. The aggregation inhibition ratio was evaluated in percent by comparing the increase of transmission rate caused by the addition of adenosin-5'-diphosphate to platelet rich plasma of the control group (no medication) with that caused on the groups administered with an ascochlorin derivative which is calculated for 100.

Serum Lipid = assay: Hypolipidemic activity: change in level of serum lipid, 30 days, high-fat feed; type: in vivo, Wister strain rats; conditions: rat; for Serum Cholesterol / Serum Free fatty acid / Serum Phospholipid / Serum Triglyceride / Serum β-Lipoprotein: average ± standard error
Acute toxicity, rat = conditions: in vivo, male
Text: (§1) Acute toxicity of the ascochlorin derivatives was observed by the use of Wister-Imamichi strain male rats weighing 230 ± 30 g and ddY strain male and female mice (5 weeks old) weighing 20 ±3 g which were divided into groups of 10 members each. Japanese native male rabbits weighing 2 kg ± 300 g which were divided into groups of five members each were also used. The test animals were orally or intraperitoneally administered with a different ascochlorin derivative as a suspension in 5% gum arabic aqueous solution, and the toxicity was compared with that of control in which ascochlorin was used.

Lipid in liver and aorta = assay: Hypolipidemic activity: change of lipid level in organs and aorta abdominalis, 30 days, high-fat feed; type: in vivo, Wister strain rats; parameters: Cholesterol in Tunica intima of aorta abdominalis: unit not given here; conditions: rat; for Cholesterol in Liver / Cholesterol in Tunica intima of aorta abdominalis / Phospholipid in Liver / Triglyceride in Liver: average ± standard error
Experimental: Wister strain rats weighing 150 ± 20 g were divided into groups of 10 members each and bred with high-fat feed, the same as that used in Example 1. The rats were orally administered ascochlorin, 4-O-methylascochlorin or ethyl-α-(p-chlorophenoxy) isobutylate in a predetermined dose every morning for 30 days. Six hours after the last administration, liver and aorta of each rat were taken out and lipid level in the organs of each of the rats were determined. Lipid present in the liver and aorta was extracted with methanol-chloroform (1:1) by allowing it to stand overnight and the extract was assayed as to lipid level.

arteriosclerosis = assay: Treatment of arteriosclerosis in human beings, oral administration; type: in vivo; conditions: 50 mg dose after every meal, study not completed
Text: In order to treat arteriosclerosis by the use of the composition prepared according to the present invention, mammals and poultry are orally administered with the pharmaceutical composition prepared according to the present invention once or more a day. Especially, for human beings, it is preferable to administer the composition three times per day, after every meal. For animals other than human beings, the composition may be administered alone or by mixing it with feed. As stated above, the dose of the composition depends on the kind of animals to which it is to be administered and on the form of the composition. However, the dose ranges generally 0.05-500, preferably 0.5-50 mg/kg.body weight per day based on the ascochlorin derivative.

Cholesterol in serum = assay: Serum cholesterol lowering activity in rats on high-fat feed, single oral dose; type: in vivo, Wister-Imamich strain male rats; conditions: rat, 75 mg/kg oral, 6 hours after administration
Text: The cholesterol lowering activity of the ascochlorin derivatives of this invention was observed by the use of Wister-Imamich strain male rats weighing 230 ± 30 g which had been bred with the use of high-fat feed comprising 1000 g of powdery chow CLEA CE-2 (sold by NIHON CLEA KABUSHIKI KAISHA) admixed with 10 g of cholesterol, 95 g of hydrogenated coconut oil, 2 g of cholic acid, 150 g of milk casein and 671 g of sucrose.
The rats were divided into groups of five members each, and orally administered with a different ascochlorin derivative as a suspension in gum arabic aqueous solution in a dose of 75 mg/kg.body weight. The rats were kept from eating food, and 6 hours after the administration, the blood of each rat was sampled from its heart. The total amount of cholesterol in serum was determined by a modified Zurkowski method (Clinical Chemistry, 10, 451, 1964) with the use of a colorimeter for blood analysis (sold by KYOTO DAIICHI KAGAKU).

Acute toxicity, rabbit = assay: Acute toxicity, rabbit; parameters: species or system Japanese native male rabbits; conditions: in vivo, male, oral
Text: as §1

Acute toxicity, mouse = conditions: in vivo
Text: as §1

COc1c(Cl)c(C)c(C=O)c(O)c1C/C=C(C)/C=C/C1(C)C(C)CCC(=O)C1C (stereo not drawn) [4-O-methylascochlorin]
Aggregation Inhibition Ratio (blood platelet): 70.5% | Serum Cholesterol, increasing or reducing ratio based on the control (Serum Lipid; 2.25 mg/kg oral): -4.2 | Serum Free fatty acid, increasing or reducing ratio based on the control (Serum Lipid; 2.25 mg/kg oral): -2.4 | Serum Phospholipid, increasing or reducing ratio based on the control (Serum Lipid; 2.25 mg/kg oral): -12.2 | Serum Triglyceride, increasing or reducing ratio based on the control (Serum Lipid; 2.25 mg/kg oral): -6.8 | Serum β-Lipoprotein, increasing or reducing ratio based on the control (Serum Lipid; 2.25 mg/kg oral): +7.3 | Serum Cholesterol (Serum Lipid; 2.25 mg/kg oral): 102.4 ± 13.8 mg/dL | Serum Free fatty acid (Serum Lipid; 2.25 mg/kg oral): 49.1±8.2 μ eq./dl | Serum Phospholipid (Serum Lipid; 2.25 mg/kg oral): 119.7 ± 12.5 mg/dL | Serum Triglyceride (Serum Lipid; 2.25 mg/kg oral): 74.5 ± 9.8 mg/dL | Serum β-Lipoprotein (Serum Lipid; 2.25 mg/kg oral): 819 ± 109 mg/dL | levels of all types of lipids (Serum Lipid; 9 mg/kg or more, oral): extremely lowered | Serum Cholesterol, increasing or reducing ratio based on the control (Serum Lipid; 9.0 mg/kg oral): -18.6 | Serum Free fatty acid, increasing or reducing ratio based on the control (Serum Lipid; 9.0 mg/kg oral): -10.4 | Serum Phospholipid, increasing or reducing ratio based on the control (Serum Lipid; 9.0 mg/kg oral): -13.2 | Serum Triglyceride, increasing or reducing ratio based on the control (Serum Lipid; 9.0 mg/kg oral): -19.0 | Serum β-Lipoprotein, increasing or reducing ratio based on the control (Serum Lipid; 9.0 mg/kg oral): -22.3 | Serum Cholesterol (Serum Lipid; 9.0 mg/kg oral): 87.0 ± 4.9 mg/dL | Serum Free fatty acid (Serum Lipid; 9.0 mg/kg oral): 44.8±3.5 μ eq./dl | Serum Phospholipid (Serum Lipid; 9.0 mg/kg oral): 118.4 ± 5.8 mg/dL | Serum Triglyceride (Serum Lipid; 9.0 mg/kg oral): 64.8 ± 5.2 mg/dL | Serum β-Lipoprotein (Serum Lipid; 9.0 mg/kg oral): 593 ± 85 mg/dL | Serum Cholesterol, increasing or reducing ratio based on the control (Serum Lipid; 22.5 mg/kg oral): -16.9 | Serum Free fatty acid, increasing or reducing ratio based on the control (Serum Lipid; 22.5 mg/kg oral): -16.3 | Serum Phospholipid, increasing or reducing ratio based on the control (Serum Lipid; 22.5 mg/kg oral): -13.5 | Serum Triglyceride, increasing or reducing ratio based on the control (Serum Lipid; 22.5 mg/kg oral): -20.5 | Serum β-Lipoprotein, increasing or reducing ratio based on the control (Serum Lipid; 22.5 mg/kg oral): -22.8 | Serum Cholesterol (Serum Lipid; 22.5 mg/kg oral): 88.8 ± 9.1 mg/dL | Serum Free fatty acid (Serum Lipid; 22.5 mg/kg oral): 42.1±2.7 μ eq./dl | Serum Phospholipid (Serum Lipid; 22.5 mg/kg oral): 117.9 ± 6.5 mg/dL | Serum Triglyceride (Serum Lipid; 22.5 mg/kg oral): 63.6 ± 4.6 mg/dL | Serum β-Lipoprotein (Serum Lipid; 22.5 mg/kg oral): 589 ± 133 mg/dL | LD50 (Acute toxicity, rat; ip): 3100 mg/kg | LD50 (Acute toxicity, rat; oral): > 10000 mg/kg | Cholesterol in Liver, increasing or reducing ratio based on the control (Lipid in liver and aorta; 2.25 mg/kg oral): +12.9 | Cholesterol in Tunica intima of aorta abdominalis, increasing or reducing ratio based on the control (Lipid in liver and aorta; 2.25 mg/kg oral): -8.1 | Phospholipid in Liver, increasing or reducing ratio based on the control (Lipid in liver and aorta; 2.25 mg/kg oral): +2.6 | Triglyceride in Liver, increasing or reducing ratio based on the control (Lipid in liver and aorta; 2.25 mg/kg oral): -23.6 | Cholesterol in Liver (Lipid in liver and aorta; 2.25 mg/kg oral): 38.4 ± 6.4 mg/g | Cholesterol in Tunica intima of aorta abdominalis (Lipid in liver and aorta; 2.25 mg/kg oral): 18.2±1.4 | Phospholipid in Liver (Lipid in liver and aorta; 2.25 mg/kg oral): 72.0 ± 5.3 mg/g | Triglyceride in Liver (Lipid in liver and aorta; 2.25 mg/kg oral): 16.7 ± 1.3 mg/g | amount of lipids in liver and cholesterol in aorta (Lipid in liver and aorta; 9 mg/kg or more, oral): remarkably reduced | Cholesterol in Liver, increasing or reducing ratio based on the control (Lipid in liver and aorta; 9.0 mg/kg oral): -15.0 | Cholesterol in Tunica intima of aorta abdominalis, increasing or reducing ratio based on the control (Lipid in liver and aorta; 9.0 mg/kg oral): -29.3 | Phospholipid in Liver, increasing or reducing ratio based on the control (Lipid in liver and aorta; 9.0 mg/kg oral): -1.6 | Triglyceride in Liver, increasing or reducing ratio based on the control (Lipid in liver and aorta; 9.0 mg/kg oral): -21.1 | Cholesterol in Liver (Lipid in liver and aorta; 9.0 mg/kg oral): 28.9 ± 3.6 mg/g | Cholesterol in Tunica intima of aorta abdominalis (Lipid in liver and aorta; 9.0 mg/kg oral): 14.0±0.3 | Phospholipid in Liver (Lipid in liver and aorta; 9.0 mg/kg oral): 69.1 ± 9.9 mg/g | Triglyceride in Liver (Lipid in liver and aorta; 9.0 mg/kg oral): 17.2 ± 2.8 mg/g | Cholesterol in Liver, increasing or reducing ratio based on the control (Lipid in liver and aorta; 22.5 mg/kg oral): -21.8 | Cholesterol in Tunica intima of aorta abdominalis, increasing or reducing ratio based on the control (Lipid in liver and aorta; 22.5 mg/kg oral): -32.8 | Phospholipid in Liver, increasing or reducing ratio based on the control (Lipid in liver and aorta; 22.5 mg/kg oral): -12.0 | Triglyceride in Liver, increasing or reducing ratio based on the control (Lipid in liver and aorta; 22.5 mg/kg oral): -22.1 | Cholesterol in Liver (Lipid in liver and aorta; 22.5 mg/kg oral): 26.6 ± 2.2 mg/g | Cholesterol in Tunica intima of aorta abdominalis (Lipid in liver and aorta; 22.5 mg/kg oral): 13.3±0.4 | Phospholipid in Liver (Lipid in liver and aorta; 22.5 mg/kg oral): 61.8 ± 4.3 mg/g | Triglyceride in Liver (Lipid in liver and aorta; 22.5 mg/kg oral): 17.0 ± 0.7 mg/g | effect in human beings (arteriosclerosis): satisfactory effect | Cholesterol in serum (Cholesterol in serum): 76.6 mg/dL | LD50 (Acute toxicity, rabbit): > 2000 mg/kg | LD50 (Acute toxicity, mouse; ip, female): 5500 mg/kg | LD50 (Acute toxicity, mouse; ip, male): 5000 mg/kg | LD50 (Acute toxicity, mouse; po, female): > 7300 mg/kg | LD50 (Acute toxicity, mouse; po, male): > 7300 mg/kg
